# Data published in publication PMC12059926, “Development and Biological Assessment of Thiazole-Based Pyridines for Targeted Therapy in Lung Cancer” (ACS Omega, 2025).
# Key:
# MMP-9 enzyme = target: T1, MMP-9 enzyme (Homo sapiens, UniProt P14780); experiment: MMP-9 enzyme inhibition, colorimetric kit; type: biochemical; details: for inhibition at 100 µM: compounds at 100 μM
# T1 construct: purchased Enzo Life Sciences Inc. (Farmingdale, NY, USA)
# Experimental: Compounds (2a–2o) were tested to determine their MMP-9 enzyme inhibition potential. The compounds were tested at a concentration of 100 μM, and the standard molecule NNGH at a concentration of 1.3 μM.
# MMP-9 inhibition was assessed using a colorimetric kit from Enzo Life Sciences Inc. (Farmingdale, NY, USA), following procedures similar to those described in previous studies.[25],[26] A thiopeptide was used as a chromogenic substrate (Ac-PLG-[2-mercapto-4-methyl-pentanoyl]-LG-OC2H5). 2-Nitro-5-thiobenzoic acid, formed by the reaction of the sulfhydryl group produced as a result of hydrolysis of the thioester by the MMP-9 enzyme and then reaction with DTNB [5,5′-dithiobis(2-nitrobenzoic acid), Ellman’s reagent], gives absorbance at 412 nm in a microplate reader (BioTek, PowerWave, Gen5 software, Winooski, VT, USA). Based on these absorptions, MMP-9 inhibition concentrations were determined. The assays were performed in triplicate. NNGH (N-isobutyl-N-(4-methoxyphenylsulfonyl)glycyl hydroxamic acid) was used as a control inhibitor. Data were shown as mean ± SD. The inhibitor % remaining activity of MMPs was calculated using the following equation:
# Inhibitor% activity remaining = (V inhibitor/V control) × 100.
# The inhibition (percent) of MMPs was calculated using the following equation: [drawing 1]
# [1] = system: A549 lung cancer cell line; experiment: MTT cytotoxicity assay on A549 lung cancer cells; type: cell-based, human; details: for IC50: Homo sapiens; for SI: selectivity index: L929 versus A549
# Experimental: (§1) The synthesized final compounds (2a–2o) were initially evaluated for their cytotoxic effects to assess their anticancer activity against A549 lung cancer cells. The healthy cell line L929 (mouse fibroblast cell line) was also used to determine the selective antiproliferative properties of the compounds.
# (§2) The human lung cancer cell line A549 and mouse fibroblast cell line L929 were used to evaluate the cytotoxicity of the compounds. Cells propagated under the specified conditions were cultured in 96-well plates at 5 × 10^3 cells/well. […] At the end of the incubation period, cell viability was determined by measuring the absorbance of the purple color formed by the breakdown of the MTT dye at 540 nm. Half-maximal inhibitory concentrations (IC50) were determined based on the tested concentrations of the compounds. The tests were triplicated.[38] The MTT assay for cytotoxicity of compounds was determined according to previously published procedures.[39],[40]
# (§3) The concentration that inhibits 50% of the cell population was calculated as IC50 using GraphPad Prism 9.0 statistical software program, and standard deviation values were analyzed. Data are expressed as mean ± SD. Comparisons were made using one-way ANOVA for continuous variables with normal distribution, and Tukey’s test was used for post hoc analysis of group differences. p < 0.05 was considered statistically significant.
# (§4) The cell viability value of the control group was considered 100%, and all viability values were calculated using the formula below. The experiment was performed in 3 replicates. [drawing 2]
# [2] = system: L929 (mouse fibroblast cell line); experiment: MTT cytotoxicity assay on L929 healthy cells; type: cell-based; details: mean ± SD
# Experimental: as §1, §2, §3, §4
# A549 cells [3] = experiment: Annexin V-FITC/propidium iodide apoptosis detection by flow cytometry; type: cell-based, human; details: IC50 dose, 24 h
# Experimental: To determine whether the antiproliferative effects of the compounds on the A549 cell line proceed through the apoptotic or necrotic pathway, the assay was performed with Annexin V-FITC/propidium iodide dyes in a flow cytometry device. […] At least 10,000 cells were analyzed, and quadrant analysis was performed. The results are presented as early apoptotic cells, late apoptotic cells, viable cells, and necrotic cells in Table 3, and as a diagram in Figure 1. In control cells, the number of viable cells was 92.04%, necrotic cells were 1.16%, early apoptotic cells were 3.43%, and late apoptotic cells were 3.28%. […] Among the compounds, 2m was the most apoptosis-inducing compound, with 14.99% early apoptotic and 10.63% late apoptotic cell percentages. […] This compound was followed by compound 2c with a 13.79% early apoptotic cells and 4.03% late apoptotic cells. Among the compounds, compound 2o induced early apoptosis the least (1.87%) and necrosis the most (3.10%). […] Nonapoptotic cell death methods, such as necroptosis and pyroptosis, can be considered for the aforementioned compounds.
# The compounds were treated with A549 cells at IC50 doses, and early and late apoptosis, necrosis, and viable cell ratios were determined as percentages. Cells were seeded at 37 °C in humidified air containing 5% CO2 with 10^5 cells/plate in each well. A549 cells were collected, washed twice with ice-cold PBS, and resuspended in 100 μL of binding buffer. Five μL (5 μg/mL) of Annexin V-FITC and PI were added to the cells and incubated for 15 min in the dark at room temperature (20–25 °C). Then, 400 μL of binding buffer was added to the mixture samples and analyzed on a flow cytometer. Quadrant analyses were also presented.[41] Compounds 2a, 2b, 2c, 2j, 2m, and 2o, with a satisfactory cytotoxic profile, were examined via flow cytometry to assess the apoptosis/necrosis cell ratio using previously published procedures.[42]
# (§5) The apoptotic results (Annexin V-FITC, Caspase 3, JC-1) were evaluated by flow cytometry using FACS Diva Version 6.1.1. software, and the apoptotic cells were determined as the percentage of cells.
# A549 cells [4] = experiment: Mitochondrial membrane potential (JC-1) by flow cytometry; type: cell-based, human; details: for % Mitochondrial membrane depolarized cells / % Mitochondrial membrane polarized cells: IC50 dose, JC-1
# Description: The mitochondrial membrane potential provides information about the state of electrons during ATP production through oxidative phosphorylation, which is essential for cellular viability. Mitochondrial dysfunction occurs when this electrical regulation is disturbed and can occur in various diseases and the process of apoptosis.[23] […] Compounds 2m, 2g, and 2c followed this, with depolarization levels exceeding 21%. The mitochondrial dysfunction in compound 2m can be considered a contributing factor to apoptosis.
# Cell staining with JC-1 was performed according to the manufacturer’s recommendations for the BD , Pharmingen Flow Cytometry Kit. […] Compounds were applied at IC50 doses of no more than 1 × 10^6/mL per well in 6-well plates. After treatment, each cell suspension was transferred to a 15 mL polystyrene centrifuge tube, the cells were centrifuged at 400g for 5 min, and the supernatant was removed. 0.5 mL of freshly prepared working solution was added to each pellet, and the solution was vortexed. The test cells were soaked in JC-1 working solution at 37 °C for 10–15 min, and the cells were washed twice. After centrifugation at 400g for 5 min, each cell pellet was suspended in 0.5 mL of 1X assay buffer and vortexed. The cells were then analyzed by flow cytometer.
# as §5
# caspase-3 in A549 cells = experiment: Caspase-3 activation; type: cell-based, human; details: 24 h
# Description: Caspases can take part in the cell death mechanism through both intrinsic and extrinsic pathways, with caspase-3 being the first enzyme activated in the apoptosis process.[24] Activation of the caspase-3 enzyme by the compounds, indicated as caspase-3 positive, and inhibition, indicated as caspase-3 negative, are presented in percentage terms in Table 5.
# A Spectrofluorometric Caspase-3 assay kit (BD Pharmingen, Franklin Lakes, NJ) was used for determining Caspase-3 activation by measuring the caspase-3 or DEVD-cleaving activity. Initially, A549 cells at a concentration of 1 × 10^6 cells/mL underwent a washing process using phosphate-buffered saline (PBS). Subsequently, they were suspended in a cold solution known as cell lysis buffer and kept on ice for a duration of 30 min. […] In each reaction, a mixture of […] of diluted Ac DEVD-AMC (a synthetic tetrapeptide fluorogenic substrate used to measure caspase-3 activity) and 0.2 mL of 1x HEPES buffer was added to a well. Then, […] of cell lysate was introduced into each well/reaction. The reaction mixtures were incubated at 37 °C for 1 h. The amount of AMC released from Ac-DEVD-AMC was measured by using a microplate reader (PerkinElmer/Victor/X3) with an excitation wavelength of 380 nm and an emission wavelength of 460 nm. Apoptotic cell lysates containing active caspase-3 produced significant emissions compared to controls. In addition, the AMC emission of nonapoptotic control cell lysates was taken as 100%, and the emission of other cell lysates was measured relative to the emission of control cells. All experiments were repeated in duplicate. Active compounds, which are the most cytotoxic compounds, were evaluated for caspase-3 activation using previously published procedures.[40],[44]
# as §5
# T1 sequence (P14780 107-444 limits assumed): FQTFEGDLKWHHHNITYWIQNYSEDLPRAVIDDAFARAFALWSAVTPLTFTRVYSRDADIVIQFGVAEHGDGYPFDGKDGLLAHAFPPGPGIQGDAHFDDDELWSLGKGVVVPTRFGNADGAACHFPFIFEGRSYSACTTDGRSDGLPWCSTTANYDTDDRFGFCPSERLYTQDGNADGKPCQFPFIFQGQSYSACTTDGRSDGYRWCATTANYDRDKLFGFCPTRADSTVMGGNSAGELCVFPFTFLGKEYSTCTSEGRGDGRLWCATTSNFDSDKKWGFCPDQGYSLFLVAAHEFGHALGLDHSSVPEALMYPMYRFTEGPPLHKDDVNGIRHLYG
Structure (SMILES),"IC50 ([1]; A549 cells, MTT, mean ± SD) [mg/L]",IC50 [2] [mg/L],SI: selectivity index [1],Q1-UL necrotic cells (A549 cells [3]) [%],Q1-UR late apoptotic cells (A549 cells [3]) [%],% Mitochondrial membrane depolarized cells (A549 cells [4]) [%],% Mitochondrial membrane polarized cells (A549 cells [4]) [%],% Caspase-3 negative cells (caspase-3 in A549 cells) [%],% Caspase-3 positive cells (caspase-3 in A549 cells) [%],also measured
"COc1ccc(S(=O)(=O)N(CC(=O)NO)CC(C)C)cc1 [NNGH, N-isobutyl-N-(4-methoxyphenylsulfonyl)glycyl hydroxamic acid, reference compound]",,,,,,,,,,"MMP-9 inhibition % (MMP-9 enzyme; standard at 1.3 μM, mean ± SD): 93.56 ± 1.78%"
"Oc1ccc(-c2csc(NN=Cc3cccnc3)n2)cc1O [Compound 2i, 4-(2-(2-(Pyridin-3-ylmethylene)hydrazinyl)thiazol-4-yl)benzene-1,2-diol]",7.2 ± 0.95,> 250,,,,,,,,inhibition at 100 µM (MMP-9 enzyme; mean ± SD): 40.6 ± 3.01%
"COc1ccc(OC)c(-c2csc(NN=Cc3ccncc3)n2)c1 [Compound 2k, 4-(2,5-Dimethoxyphenyl)-2-(2-(pyridin-4-ylmethylene)hydrazinyl)thiazole]",6.07 ± 0.31,8.59 ± 0.32,1.42,,,,,,,"MMP-9 inhibition, result in words (MMP-9 enzyme; compared with 2f): less active than 2f (2,5-dimethoxypehnyl) or inactive"
"N.N.[Cl][Pt][Cl] [Cisplatin, reference compound]",,,,6.56,31.29,36.27,62.15,75.56,11.65,"IC50 A549 ([1]; A549 cells, MTT, mean ± SD): 12.65 ± 0.38 mg/L; total apoptosis (early + late apoptotic cells) (A549 cells [3]): 62.37%"
"Clc1ccc(-c2csc(NN=Cc3cccnc3)n2)cc1Cl [Compound 2j, 4-(3,4-Dichlorophenyl)-2-(2-(pyridin-3-ylmethylene)hydrazinyl)thiazole]",6.58 ± 0.35,9.76 ± 0.45,1.48,1.68,3.31,15.40,84.75,97.47,0.96,"Q1-LL viable cells (A549 cells [3]): 91.05%; Q1-LR early apoptotic cells (A549 cells [3]): 3.96%; apoptosis induction, result in words (A549 cells [3]): did not significantly induce apoptosis"
"Oc1ccc(-c2csc(NN=Cc3ccccn3)n2)cc1O [Compound 2d, 4-(2-(2-(Pyridin-2-ylmethylene)hydrazinyl)thiazol-4-yl)benzene-1,2-diol]",4.7 ± 0.6,9.2 ± 0.36,1.96,,,,,,,
"CS(=O)(=O)c1ccc(-c2csc(NN=Cc3ccccn3)n2)cc1 [Compound 2b, 4-(4-(Methylsulfonyl)phenyl)-2-(2-(pyridin-2-ylmethylene)hydrazinyl)thiazole]",9.93 ± 0.37,31.2 ± 0.56,,0.33,2.28,47.96,54.51,84.70,7.73,"Q1-LL viable cells (A549 cells [3]): 90.44%; Q1-LR early apoptotic cells (A549 cells [3]): 6.95%; apoptosis induction, result in words (A549 cells [3]): did not significantly induce apoptosis; mitochondrial membrane depolarization relative to cisplatin (A549 cells [4]; versus cisplatin): approximately 1.5 times"
"Clc1ccc(-c2csc(NN=Cc3ccncc3)n2)cc1Cl [Compound 2o, 4-(3,4-Dichlorophenyl)-2-(2-(pyridin-4-ylmethylene)hydrazinyl)thiazole]",5.04 ± 0.31,51.9 ± 0.58,,3.10,7.92,12.85,87.73,25.00,0.00,Q1-LL viable cells (A549 cells [3]): 87.11%; Q1-LR early apoptotic cells (A549 cells [3]): 1.87%
"CS(=O)(=O)c1ccc(-c2csc(NN=Cc3ccncc3)n2)cc1 [Compound 2l, 4-(4-(Methylsulfonyl)phenyl)-2-(2-(pyridin-4-ylmethylene)hydrazinyl)thiazole]",4.7 ± 0.3,6.74 ± 0.41,1.43,,,,,,,
"C(=NNc1nc(-c2ccc(-c3ccccc3)cc2)cs1)c1cccnc1 [Compound 2h, 4-([1,1’-Biphenyl]-4-yl)-2-(2-(pyridin-3-ylmethylene)hydrazinyl)thiazole]",9.93 ± 0.42,15.2 ± 0.53,1.53,,,,,,,
"COc1ccc(OC)c(-c2csc(NN=Cc3cccnc3)n2)c1 [Compound 2f, 4-(2,5-Dimethoxyphenyl)-2-(2-(pyridin-3-ylmethylene)hydrazinyl)thiazole]",4.04 ± 0.29,14 ± 0.57,,,,,,,,inhibition at 100 µM (MMP-9 enzyme; mean ± SD): 70.8 ± 2.2%
"Clc1ccc(-c2csc(NN=Cc3ccccn3)n2)cc1Cl [Compound 2e, 4-(3,4-Dichlorophenyl)-2-(2-(pyridin-2-ylmethylene)hydrazinyl)thiazole]",4.56 ± 0.31,4.87 ± 0.3,1.07,,,,,,,inhibition at 100 µM (MMP-9 enzyme; mean ± SD): 30.3 ± 2.64%
